Assay results reported in patent US10620225B2, “Detection of polymyxins” (Randox Laboratories Limited, priority 2014, dated 2020).

Legend:
Type in all cases: binding, sheep
Antibody RS2830 = assay: Competitive biochip immunoassay with Polymyxin B-KLH derived antibody RS2830 and Colistin-HRP tracer
Protocol: (§1) The process of developing an immunoassay is well known to the person skilled in the art. Briefly, for a competitive immunoassay in which the target analyte is a non-immunogenic molecule such as a hapten, a general immunoassay development process outlined. Following antibody production, a detecting agent is added to a sample containing the target analyte and the raised antibodies, and the detecting agent and analyte compete for binding to the antibodies. The process may comprise fixing said serum antibodies to a solid state device such as a polystyrene support or a ceramic chip. The antibodies can be polyclonal or monoclonal using standard techniques, but the current invention makes use of polyclonal antibodies. The signal emitted in the immunoassay is proportionate to the quantity of detecting agent bound to the antibodies which in turn is inversely proportionate to the analyte concentration. The signal can be detected or quantified by comparison with a calibrator.
(§2) 175 μl of assay diluent, then 25 μl of Polymyxin diluted in calibrator base was added to the appropriate wells. Biochips spotted with antibody of the invention were incubated for 30 min at 25° C. in a thermo-shaker at 370 rpm. 100 μl Tracer of the invention was added to the appropriate wells. Biochips were incubated for 60 min at 25° C. in a thermo-shaker at 370 rpm. Biochips were washed with TBST (2 quick washes followed by 4 washes at 2 min intervals). Biochips were developed with 250 μl signal: peroxide (1:1) for 2 min in the dark. Biochips were imaged on the Randox Investigator (2×60 sec images). All biochips were manually processed.

Antibody RS2801 = assay: Competitive biochip immunoassay with Polymyxin B-KLH derived antibody RS2801 and Colistin-HRP tracer
Protocol: as §1, §2

[1] = system: Polymyxin B derived antibody; assay: Competitive biochip immunoassay, standard curves with Polymyxin B derived antibody and Colistin-based tracer; conditions: for CR (percentage cross-reactivity) / IC50 (standard concentration which produces 50% inhibition of maximal signal): Polymyxin B derived antibody, Colistin-based tracer
Protocol: as §1, §2

Antibody RS2790 = assay: Competitive biochip immunoassay with Polymyxin B-KLH derived antibody RS2790 and Colistin-HRP tracer
Protocol: as §1, §2

[2] = antibody 0.1 mg/ml, Colistin-HRP tracer dilution 1/500K
[3] = antibody 0.1 mg/ml, Colistin-HRP tracer dilution 1/1000K
[4] = antibody 0.1 mg/ml, tracer dilution 1/500K
[5] = antibody 0.1 mg/ml, tracer dilution 1/1000K
[6] = antibody 0.75 mg/ml, Colistin-HRP tracer dilution 1/500K
[7] = antibody 0.75 mg/ml, Colistin-HRP tracer dilution 1/1000K
[8] = antibody 0.75 mg/ml, tracer dilution 1/500K
[9] = antibody 0.75 mg/ml, tracer dilution 1/1000K
[10] = antibody 0.1 mg/ml, Colistin-HRP tracer dilution 1/50K
[11] = antibody 0.1 mg/ml, Colistin-HRP tracer dilution 1/100K
[12] = antibody 0.1 mg/ml, tracer dilution 1/50K
[13] = antibody 0.1 mg/ml, tracer dilution 1/100K
[14] = antibody 0.75 mg/ml, Colistin-HRP tracer dilution 1/50K
[15] = antibody 0.75 mg/ml, Colistin-HRP tracer dilution 1/100K
[16] = antibody 0.75 mg/ml, tracer dilution 1/50K
[17] = antibody 0.75 mg/ml, tracer dilution 1/100K

| Substance | Relative % Cross-reactivity (Antibody RS2830; [2]) [%] | Relative % Cross-reactivity (Antibody RS2830; [3]) [%] | Relative Binding (IC50) (Antibody RS2830; [4]) [ng/mL] | Relative Binding (IC50) (Antibody RS2830; [5]) [ng/mL] | Relative % Cross-reactivity (Antibody RS2830; [6]) [%] | Relative % Cross-reactivity (Antibody RS2830; [7]) [%] | Relative Binding (IC50) (Antibody RS2830; [8]) [ng/mL] | Relative Binding (IC50) (Antibody RS2830; [9]) [ng/mL] | Relative % Cross-reactivity (Antibody RS2801; [2]) [%] | Relative % Cross-reactivity (Antibody RS2801; [3]) [%] | Relative Binding (IC50) (Antibody RS2801; [4]) [ng/mL] | Relative Binding (IC50) (Antibody RS2801; [5]) [ng/mL] | Relative % Cross-reactivity (Antibody RS2801; [6]) [%] | Relative % Cross-reactivity (Antibody RS2801; [7]) [%] | Relative Binding (IC50) (Antibody RS2801; [8]) [ng/mL] | Relative Binding (IC50) (Antibody RS2801; [9]) [ng/mL] | CR (percentage cross-reactivity) [1] | IC50 (standard concentration which produces 50% inhibition of maximal signal) [1] [ng/mL] | Relative % Cross-reactivity (Antibody RS2790; [10]) [%] | Relative % Cross-reactivity (Antibody RS2790; [11]) [%] | other results |
| --- | --- | --- | --- | --- | --- | --- | --- | --- | --- | --- | --- | --- | --- | --- | --- | --- | --- | --- | --- | --- | --- |
| Colistin | 6 | 5 | 2.54 | 3.62 | 8 | 9 | 2.16 | 2.47 | 20 | 15 | 0.47 | 0.78 | 67 | 62 | 0.24 | 0.22 | (CR = 80%) | 1.191 | 5 | 23 | B/Bo ([1]; standard conc 0.391 ng/ml): 71%; B/Bo ([1]; standard conc 0.781 ng/ml): 58%; B/Bo ([1]; standard conc 1.563 ng/ml): 44%; B/Bo ([1]; standard conc 3.125 ng/ml): 33%; B/Bo ([1]; standard conc 6.250 ng/ml): 17%; B/Bo ([1]; standard conc 12.500 ng/ml): 11%; B/Bo ([1]; standard conc 25.000 ng/ml): 9%; B/Bo ([1]; standard conc 50.000 ng/ml): 6%; Relative Binding (IC50) (Antibody RS2790; [12]): 3.02 ng/mL; Relative Binding (IC50) (Antibody RS2790; [13]): 1.60 ng/mL; Relative % Cross-reactivity (Antibody RS2790; [14]): 8%; Relative % Cross-reactivity (Antibody RS2790; [15]): 59%; Relative Binding (IC50) (Antibody RS2790; [16]): 1.72 ng/mL; Relative Binding (IC50) (Antibody RS2790; [17]): 1.01 ng/mL |
| Polymyxin B | 100 | 100 | 0.15 | 0.17 | 100 | 100 | 0.17 | 0.22 | 100 | 100 | 0.09 | 0.12 | 100 | 100 | 0.16 | 0.13 | (CR = 100%) | 0.931 | 100 | 100 | B/Bo ([1]; standard conc 0.078 ng/ml): 86%; B/Bo ([1]; standard conc 0.156 ng/ml): 78%; B/Bo ([1]; standard conc 0.313 ng/ml): 64%; B/Bo ([1]; standard conc 0.625 ng/ml): 56%; B/Bo ([1]; standard conc 1.250 ng/ml): 51%; B/Bo ([1]; standard conc 2.500 ng/ml): 38%; B/Bo ([1]; standard conc 5.000 ng/ml): 27%; B/Bo ([1]; standard conc 10.000 ng/ml): 16%; Relative Binding (IC50) (Antibody RS2790; [12]): 0.14 ng/mL; Relative Binding (IC50) (Antibody RS2790; [13]): 0.37 ng/mL; Relative % Cross-reactivity (Antibody RS2790; [14]): 100%; Relative % Cross-reactivity (Antibody RS2790; [15]): 100%; Relative Binding (IC50) (Antibody RS2790; [16]): 0.14 ng/mL; Relative Binding (IC50) (Antibody RS2790; [17]): 0.59 ng/mL |
